Measurements reported in patent publication US6569836B2, “6-O-alkyl-2-nor-2-substituted ketolide derivatives” (Abbott Laboratories, priority 1999, dated 2003).

Assays:
Experiment in all cases: In vitro antibacterial activity, agar dilution MIC
[1] = test system: Micrococcusluteus ATCC 4698; format: cell-based, Micrococcus luteus; settings: code PP, BHI agar, 35-37° C., 20-24 hours, unit assumed
Description: (§1) Each plate was inoculated with 1:100 (or 1:10 for slow-growing strains, such as Micrococcus and Streptococcus) dilutions of up to 32 different microorganisms, using a Steers replicator block. The inoculated plates were incubated at 35-37° C. for 20-24 hours. In addition, a control plate using BHI agar with no test compound was prepared and incubated at the beginning and end of each test. A plate containing erythromycin A was also prepared to provide test-to-test comparability. […] After incubation, each plate was visually inspected. The minimum inhibitory concentration (MIC) was defined as the lowest concentration of drug yielding no growth, a slight haze, or sparsely isolated colonies on the inoculum spot as compared to the growth control.

Escherichiacoli JUHL = format: cell-based, Escherichia coli; settings: code QQ, BHI agar, 35-37° C., 20-24 hours, unit assumed
Description: as §1

Escherichiacoli SS = format: cell-based, Escherichia coli; settings: code RR, BHI agar, 35-37° C., 20-24 hours, unit assumed
Description: as §1

[2] = test system: Streptococcus Pneumonia 5649; format: cell-based; settings: code ZA, BHI agar, 35-37° C., 20-24 hours, unit assumed
Description: as §1

[3] = test system: Streptococcus Pneumonia GYR 1171; format: cell-based; settings: code YY, BHI agar, 35-37° C., 20-24 hours, unit assumed
Description: as §1

[4] = test system: Streptococcus Pneumonia ATCC 6303; format: cell-based; settings: code XX, BHI agar, 35-37° C., 20-24 hours, unit assumed
Description: as §1

[5] = test system: Streptococcus pyogenes EES61; format: cell-based; settings: code LL, BHI agar, 35-37° C., 20-24 hours, unit assumed
Description: as §1

[6] = test system: Streptococcus bovis A-5169; format: cell-based; settings: code JJ, BHI agar, 35-37° C., 20-24 hours, unit assumed
Description: as §1

[7] = test system: Streptococcus pyogenes PIU 2548; format: cell-based; settings: code NN, BHI agar, 35-37° C., 20-24 hours, unit assumed
Description: as §1

Candida albicans CCH 442 = format: cell-based; settings: code TT, BHI agar, 35-37° C., 20-24 hours, unit assumed
Description: as §1

[8] = test system: Staphylococcus aureus NCTC 10649M; format: cell-based; settings: code EE, BHI agar, 35-37° C., 20-24 hours, unit assumed
Description: as §1

[9] = test system: Streptococcus pyogenes 930; format: cell-based; settings: code MM, BHI agar, 35-37° C., 20-24 hours, unit assumed
Description: as §1

[10] = test system: Streptococcus agalactiae CMX 508; format: cell-based; settings: code KK, BHI agar, 35-37° C., 20-24 hours, unit assumed
Description: as §1

[11] = test system: Staphylococcus aureus A-5278; format: cell-based; settings: code CC, BHI agar, 35-37° C., 20-24 hours, unit assumed
Description: as §1

[12] = test system: Staphylococcus aureus ATCC 6538P; format: cell-based; settings: code AA, BHI agar, 35-37° C., 20-24 hours, unit assumed
Description: as §1

[13] = test system: Staphylococcus aureus A-5177; format: cell-based; settings: code BB, BHI agar, 35-37° C., 20-24 hours, unit assumed
Description: as §1

[14] = test system: Nocardia Asteroides ATCC 99700; format: cell-based; settings: code VV, BHI agar, 35-37° C., 20-24 hours, unit assumed
Description: as §1

[15] = test system: Staphylococcus aureus 1775; format: cell-based; settings: code GG, BHI agar, 35-37° C., 20-24 hours, unit assumed
Description: as §1

[16] = test system: Staphylococcus epidermidis 3519; format: cell-based; settings: code HH, BHI agar, 35-37° C., 20-24 hours, unit assumed
Description: as §1

[17] = test system: Mycobacterium smegmatis ATCC 114; format: cell-based; settings: code UU, BHI agar, 35-37° C., 20-24 hours, unit assumed
Description: as §1

[18] = test system: Haemophilislnfluenzae DILL AMP R; format: cell-based, Haemophilus influenzae; settings: code WW, BHI agar, 35-37° C., 20-24 hours, unit assumed
Description: Representative compounds of the present invention were assayed in vitro for antibacterial activity as follows: twelve petri dishes containing successive aqueous dilutions of the test compound mixed with 10 mL of sterilized Brain Heart Infusion (BHI) agar (Difco 0418-01-5) were prepared. Each plate was inoculated with 1:100 (or 1:10 for slow-growing strains, such as Micrococcus and Streptococcus) dilutions of up to 32 different microorganisms, using a Steers replicator block. The inoculated plates were incubated at 35-37° C. for 20-24 hours. In addition, a control plate using BHI agar with no test compound was prepared and incubated at the beginning and end of each test.
A plate containing erythromycin A was also prepared to provide test-to-test comparability.
After incubation, each plate was visually inspected. The minimum inhibitory concentration (MIC) was defined as the lowest concentration of drug yielding no growth, a slight haze, or sparsely isolated colonies on the inoculum spot as compared to the growth control.

[19] = test system: Streptococcus Pneumonia 5979; format: cell-based; settings: code ZZ, BHI agar, 35-37° C., 20-24 hours, unit assumed
Description: as §1, with “test.” for “test. A plate containing erythromycin A was also prepared to provide test-to-test comparability.”

Row | Compound | Antibacterial Activity (MIC's) [1] [µg/mL] | Antibacterial Activity (MIC's) (Escherichiacoli JUHL) [µg/mL] | Antibacterial Activity (MIC's) (Escherichiacoli SS) [µg/mL] | Antibacterial Activity (MIC's) [2] [µg/mL] | Antibacterial Activity (MIC's) [3] [µg/mL] | Antibacterial Activity (MIC's) [4] [µg/mL] | Antibacterial Activity (MIC's) [5] [µg/mL] | Antibacterial Activity (MIC's) [6] [µg/mL] | Antibacterial Activity (MIC's) [7] [µg/mL] | Antibacterial Activity (MIC's) (Candida albicans CCH 442) [µg/mL] | Antibacterial Activity (MIC's) [8] [µg/mL] | Antibacterial Activity (MIC's) [9] [µg/mL] | Antibacterial Activity (MIC's) [10] [µg/mL] | Antibacterial Activity (MIC's) [11] [µg/mL] | Antibacterial Activity (MIC's) [12] [µg/mL] | Antibacterial Activity (MIC's) [13] [µg/mL] | Antibacterial Activity (MIC's) [14] [µg/mL] | Antibacterial Activity (MIC's) [15] [µg/mL] | Antibacterial Activity (MIC's) [16] [µg/mL] | Antibacterial Activity (MIC's) [17] [µg/mL] | further results
1 | CC[C@H]1OC(=O)[C@H](C)[C@@H](O[C@H]2C[C@@](C)(OC)[C@@H](O)[C@H](C)O2)[C@H](C)[C@@H](O[C@@H]2O[C@H](C)C[C@H](N(C)C)[C@H]2O)[C@](C)(O)C[C@@H](C)C(=O)[C@H](C)[C@@H](O)[C@]1(C)O [Ery. A, Erythromycin A, reference compound] | 0.2 | > 100 | 0.78 | 16 | 0.06 | 0.06 | 0.05 | 0.02 | 6.2 | > 100 | 0.39 | > 100 | 0.05 | > 100 | 0.2 | 3.1 | 0.1 | > 100 | 0.39 | 3.1 | Antibacterial Activity (MIC's) [18]: 4 µg/mL
2 | CCC1OC(=O)CC(=O)C(C)C(OC2OC(C)CC(N(C)C)C2O)C(C)(OCC=Cc2cnc3ccccc3c2)CC(C)C(=O)C(C)C2NC(=O)OC12C (stereo not shown) [Example 2, Compound of Formula (XI), R^p is Hydrogen, Y is Hydrogen, R^2 is 3-quinolyl, R^3 is Hydrogen and R^4 is Hydrogen] | 0.2 | 100 | 0.39 | 0.5 | 0.03 | 0.03 | 0.01 | 0.02 | 0.2 | > 100 | 0.39 | 50 | 0.02 | > 100 | 0.39 | 0.39 | 0.2 | > 100 | 0.39 | 6.2 | Antibacterial Activity (MIC's) [19]: 8 µg/mL; Antibacterial Activity (MIC's) [18]: 8 µg/mL
3 | C=CCC1C(=O)OC(CC)C2(C)OC(=O)NC2C(C)C(=O)C(C)CC(C)(OCC=Cc2cnc3ccccc3c2)C(OC2OC(C)CC(N(C)C)C2O)C(C)C1=O (stereo not shown) [Example 5, Compound of Formula (XI), R^p is Hydrogen, Y is Hydrogen, R^2 is 3-quinolyl R^3 is —CH2CH═CH2 and R^4 is hydrogen] | > 100 | > 100 | > 100 | > 128 | 32 | 32 | 100 | 25 | > 100 | > 100 | > 100 | > 100 | 100 | > 100 | > 100 | > 100 | > 100 | > 100 | > 100 | > 100 | Antibacterial Activity (MIC's) [19]: > 128 µg/mL
